Data reported in ChEMBL document CHEMBL4190176 (Medchemcomm, 2016).

Each molecule was assayed against T1, Bifunctional epoxide hydrolase 2 (Homo sapiens, UniProt P34913) (assay: Inhibition of recombinant human soluble epoxide hydrolase using PHOME as substrate incubated for 5 mins followed by substrate addition by fluorescence assay).
T1 sequence (P34913 whole entry): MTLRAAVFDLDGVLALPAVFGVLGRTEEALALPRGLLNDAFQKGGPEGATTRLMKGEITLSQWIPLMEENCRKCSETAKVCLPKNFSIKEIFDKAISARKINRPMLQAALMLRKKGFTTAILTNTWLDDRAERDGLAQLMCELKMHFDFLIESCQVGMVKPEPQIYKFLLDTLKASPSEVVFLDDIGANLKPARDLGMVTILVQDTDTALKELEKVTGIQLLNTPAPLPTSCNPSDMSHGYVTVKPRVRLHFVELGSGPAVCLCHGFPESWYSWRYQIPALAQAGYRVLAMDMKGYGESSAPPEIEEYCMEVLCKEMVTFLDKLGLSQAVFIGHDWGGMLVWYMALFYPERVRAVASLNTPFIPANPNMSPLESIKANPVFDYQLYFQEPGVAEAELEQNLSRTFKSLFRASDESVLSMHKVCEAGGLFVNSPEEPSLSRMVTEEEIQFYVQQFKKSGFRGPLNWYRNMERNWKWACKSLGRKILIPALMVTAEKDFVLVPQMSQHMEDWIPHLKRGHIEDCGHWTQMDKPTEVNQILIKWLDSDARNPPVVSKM
`CCOC(=O)C1=C(c2ccccc2)NC(=O)NC1c1ccc(NC(=O)c2ccccc2C(=O)O)cc1` (stereo not drawn) gave an IC50 of 1.92 nM. In the case of `CCOC(=O)C1=C(c2ccccc2)NC(=O)NC1c1ccc(NC(=O)c2ccccc2)cc1` (stereo not drawn), the IC50 is reported as 1.22 nM. `CCOC(=O)C1=C(c2ccccc2)NC(=O)NC1c1ccc(NC(=O)c2ccc([N+](=O)[O-])cc2)cc1` (stereo not drawn) gave an IC50 of 2 nM. In the case of `CCOC(=O)C1=C(c2ccccc2)NC(=O)NC1c1ccc(NC(=O)c2ccc(Cl)cc2)cc1` (stereo not drawn), the IC50 is reported as 0.48 nM. Molecule `CCOC(=O)C1=C(c2ccccc2)NC(=O)NC1c1ccc(NC(=O)CCC(=O)O)cc1` (stereo not drawn) has an IC50 of 2.22 nM. `CCOC(=O)C1=C(c2ccccc2)NC(=O)NC1c1ccc(NC(=O)c2ccc(OC)cc2)cc1` (stereo not drawn) gave an IC50 of 1.82 nM. In the case of `CCOC(=O)C1=C(c2ccccc2)NC(=O)NC1c1ccc(NC(=O)c2ccc(F)cc2)cc1` (stereo not drawn), the IC50 is reported as 0.96 nM. For `CCOC(=O)C1=C(c2ccccc2)NC(=O)NC1c1ccc(NC(=O)c2ccc(C)cc2)cc1` (stereo not drawn), the IC50 was 0.48 nM.
